Read-outs that look alike come from different tables or passages of the source.
How the values were obtained:
Trypanosoma cruzi Fe-SOD = assay: SOD enzymatic inhibition, Fe-SOD; assay type: biochemical
[1] = system: T. cruzi epimastigotes, Tulahuen strain; assay: Screening against extracellular epimastigotes, Tulahuen strain; assay type: cell-based, Trypanosoma cruzi
[2] = system: T. cruzi trypomastigotes, Tulahuen strain; assay: Screening against bloodstream trypomastigotes, Tulahuen strain; assay type: cell-based, Trypanosoma cruzi
[3] = system: T. cruzi amastigotes, SN3 strain; assay: Screening against intracellular amastigotes, SN3 strain; assay type: cell-based, Trypanosoma cruzi
[4] = assay type: in vivo, BALB/c mice; details: variation vs control
Procedure: (§1) Female BALB/c mice aged 10–12 weeks and with a size of 20–24 g were divided into five groups (n = 3 per group): 0, negative control group (uninfected and untreated mice); I, positive control group (infected and untreated mice); II, BZN group (infected mice treated with BZN); III, 26 group (infected mice treated with 26); and IV, 28 group (infected mice treated with 28).
(§2) The tested selenocompounds and BZN were prepared at 2 mg·mL^–1 in an aqueous suspension vehicle containing 5% (v/v) DMSO and 0.5% (w/v) hydroxypropyl methylcellulose, as previously reported.[52] Compounds (20 mg·kg^–1 per day) were administered for 5 consecutive days (total dosages of 100 mg·kg^–1), and vehicle only was administered in the negative and positive control groups. Treatments began when the infection was confirmed (9 dpi) for acute-phase-treated mice, and when it was established that the animals moved into the chronic phase (100 dpi, for chronic-phase-treated mice; Scheme 1).
Serum samples obtained from blood in several days post-infection (Scheme 1) were sent to the Biochemical Service (University of Granada) to measure a series of biochemical parameters with the commercial Cromakit using a clinical chemistry analyzer (BS-200, Shenzhen Mindray Biomedical Electronics Co., LTD), as previously described.[41]

[5] = system: T. cruzi epimastigotes, Arequipa strain; assay: Screening against extracellular epimastigotes, Arequipa strain; assay type: cell-based, Trypanosoma cruzi
[6] = system: T. cruzi epimastigotes, SN3 strain; assay: Screening against extracellular epimastigotes, SN3 strain; assay type: cell-based, Trypanosoma cruzi
[7] = system: T. cruzi amastigotes, Arequipa strain; assay: Screening against intracellular amastigotes, Arequipa strain; assay type: cell-based, Trypanosoma cruzi
[8] = system: epimastigotes of T. cruzi Arequipa strain; assay: Flow cytometry analysis of nucleic acid levels (acridine orange); assay type: cell-based, Trypanosoma cruzi; details: IC25 concentrations, 72 h
[9] = system: T. cruzi trypomastigotes, SN3 strain; assay: Screening against bloodstream trypomastigotes, SN3 strain; assay type: cell-based, Trypanosoma cruzi
T. cruzi Arequipa strain = assay: In vivo trypanocidal activity on BALB/c mice (acute and chronic Chagas disease); set-up: species or system Trypanosoma cruzi
Procedure: as §1
Mice were infected by intraperitoneal injection of 5 × 10^5 BTs of T. cruzi Arequipa strain per mouse in 200 μL PBS.[42] Subsequently, the treatment was intraperitoneally administered (∼200 μL) once daily for 5 consecutive days.
as §2
[…]. Parasitemia was expressed as parasites·mL^–1.
Immunosuppression was performed by intraperitoneal injection of three doses of 200 mg·kg^–1 of ISOPAC CP at 3–4 day intervals (Scheme 1), as previously reported.[53] Mice were closely monitored for side effects or for secondary infections due to immunosuppression. Within 7 days after the last CP injection, parasitemia reactivation was determined by counting BTs according the procedure described for parasitemia in the acute phase.[42]
On 145 dpi, the mice were euthanized using CO2, followed by exsanguination via cardiac puncture, and blood was collected. […]. In addition, spleens were weighed to assess splenomegaly.[42]
DNA extraction of the post-mortem organs/tissues was performed using Wizard Genomic DNA Purification Kit,[41] and the extracted DNA was subjected to amplification by PCR based on the spliced leader (SL) intergenic region sequence of T. cruzi (for detailed description, see literature reported previously).[55] Finally, the PCR products were resolved by electrophoresis on a 2% agarose gel (containing GelRed nucleic gel stain) for 90 min at 90 V.
Circulating antibodies in serum against both antigens were quantitatively evaluated in triplicate by the ELISA test in 96-well plates using diluted serum samples (1:80 in PBS), as previously described.[41]

[10] = system: T. cruzi amastigotes, Tulahuen strain; assay: Screening against intracellular amastigotes, Tulahuen strain; assay type: cell-based, Trypanosoma cruzi
[11] = target: T1, human erythrocytes CuZn-SOD (Homo sapiens, UniProt P00441); assay: SOD enzymatic inhibition, CuZn-SOD; assay type: biochemical
T1 construct: commercial copper/zinc superoxide dismutase (Cu/Zn-SOD) from human erythrocytes (Sigma-Aldrich); purchased Sigma-Aldrich; host or cells: human erythrocytes (natural source)
T1 sequence (P00441 whole entry): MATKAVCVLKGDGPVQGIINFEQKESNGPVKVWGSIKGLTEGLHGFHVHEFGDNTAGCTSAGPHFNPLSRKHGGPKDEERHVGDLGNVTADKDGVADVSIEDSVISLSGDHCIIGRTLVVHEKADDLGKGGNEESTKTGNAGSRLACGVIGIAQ

[12] = system: T. cruzi trypomastigotes, Arequipa strain; assay: Screening against bloodstream trypomastigotes, Arequipa strain; assay type: cell-based, Trypanosoma cruzi
[13] = system: Vero cells infected with T. cruzi Arequipa strain; assay: Infection rate in Vero cells (infected cells), Arequipa strain; assay type: cell-based; details: Trypanosoma cruzi, 72 h of treatment
Vero cells = assay: Cytotoxicity test on Vero cells; assay type: cell-based; details: Chlorocebus sabaeus, 48 h + 24 h resazurin, read-out: Toxicity IC50 Vero cell
[14] = IC50 Vero cells/IC50 epimastigotes
[15] = IC50 Vero cells/IC50 trypomastigotes
[16] = IC50 Vero cells/IC50 amastigotes
[17] = treatment in acute phase, 15th dpi (2 days after treatment)
[18] = treatment in acute phase, necropsy day
[19] = treatment in chronic phase, 106th dpi (2 days after treatment)
[20] = treatment in chronic phase, necropsy day
[21] = 20 mg·kg–1 per day i.p. 5 days from 9 dpi
[22] = 20 mg·kg–1 per day i.p. 5 days from 100 dpi

N#C[Se]c1ccc(NC(=O)c2ccco2)cc1 [Compound 28]
IC50 (Trypanosoma cruzi Fe-SOD): 9.4 µM | Selectivity index (SI), epimastigotes, Tulahuen strain [1, 14]: 19 | IC50 ([1]; Trypanosoma cruzi, TULAHUEN, 48 h + 24 h resazurin, read-out: Activity IC50, epimastigote form, Tulahuen strain): 4.6 ± 0.3 µM | selectivity index (SI), Tulahuen strain, trypom. forms [2, 15]: 50 | IC50 ([2]; Trypanosoma cruzi, TULAHUEN, bloodstream trypomastigotes, 24 h + 4 h resazurin, read-out: activity IC50, Tulahuen strain, trypom. forms): 1800 ± 200 nM | selectivity index (SI), SN3 strain, am. forms [3, 16]: 53 | IC50 ([3]; Trypanosoma cruzi, amastigotes in Vero cells, 72 h, read-out: activity IC50, SN3 strain, am. forms): 1700 ± 400 nM | ALP (liver marker) [4, 17]: + (+/-, 10-20% increase/decrease over the range) | ALT/GPT (liver marker) [4, 17]: ++ (++/--, 20-30% increase/decrease over the range) | AST/GOT (liver marker) [4, 17]: ++ (++/--, 20-30% increase/decrease over the range) | CK-MB (heart marker) [4, 17]: ++++ (++++/----, ˃ 40% increase/decrease over the range) | LDH (heart marker) [4, 17]: - (+/-, 10-20% increase/decrease over the range) | Total bilirubin (liver marker) [4, 17]: ++ (++/--, 20-30% increase/decrease over the range) | Urea (kidney marker) [4, 17]: -- (++/--, 20-30% increase/decrease over the range) | Uric acid (kidney marker) [4, 17]: ---- (++++/----, ˃ 40% increase/decrease over the range) | ALP (liver marker) [4, 18]: + (+/-, 10-20% increase/decrease over the range) | ALT/GPT (liver marker) [4, 18]: ++ (++/--, 20-30% increase/decrease over the range) | AST/GOT (liver marker) [4, 18]: + (+/-, 10-20% increase/decrease over the range) | CK-MB (heart marker) [4, 18]: = (=, variation ≤ 10%) | LDH (heart marker) [4, 18]: = (=, variation ≤ 10%) | Total bilirubin (liver marker) [4, 18]: = (=, variation ≤ 10%) | Urea (kidney marker) [4, 18]: = (=, variation ≤ 10%) | Uric acid (kidney marker) [4, 18]: - (+/-, 10-20% increase/decrease over the range) | ALP (liver marker) [4, 19]: + (+/-, 10-20% increase/decrease over the range) | ALT/GPT (liver marker) [4, 19]: + (+/-, 10-20% increase/decrease over the range) | AST/GOT (liver marker) [4, 19]: = (=, variation ≤ 10%) | CK-MB (heart marker) [4, 19]: ++ (++/--, 20-30% increase/decrease over the range) | LDH (heart marker) [4, 19]: = (=, variation ≤ 10%) | Total bilirubin (liver marker) [4, 19]: = (=, variation ≤ 10%) | Urea (kidney marker) [4, 19]: = (=, variation ≤ 10%) | Uric acid (kidney marker) [4, 19]: = (=, variation ≤ 10%) | ALP (liver marker) [4, 20]: = (=, variation ≤ 10%) | ALT/GPT (liver marker) [4, 20]: = (=, variation ≤ 10%) | AST/GOT (liver marker) [4, 20]: + (+/-, 10-20% increase/decrease over the range) | CK-MB (heart marker) [4, 20]: + (+/-, 10-20% increase/decrease over the range) | LDH (heart marker) [4, 20]: = (=, variation ≤ 10%) | Total bilirubin (liver marker) [4, 20]: = (=, variation ≤ 10%) | Urea (kidney marker) [4, 20]: = (=, variation ≤ 10%) | Uric acid (kidney marker) [4, 20]: = (=, variation ≤ 10%) | Selectivity index (SI), epimastigotes, Arequipa strain [5, 14]: 19 | IC50 ([5]; Trypanosoma cruzi, 48 h + 24 h resazurin, read-out: Activity IC50, epimastigote form, Arequipa strain): 4.8 ± 0.4 µM | Selectivity index (SI), epimastigotes, SN3 strain [6, 14]: 24 | IC50 ([6]; Trypanosoma cruzi, 48 h + 24 h resazurin, read-out: Activity IC50, epimastigote form, SN3 strain): 3.8 ± 0.4 µM | selectivity index (SI), Arequipa strain, am. forms [7, 16]: 28 | IC50 ([7]; Trypanosoma cruzi, amastigotes in Vero cells, 72 h, read-out: activity IC50, Arequipa strain, am. forms): 3.2 ± 0.4 µM | inhibition of nucleic acid levels [8]: 62% | selectivity index (SI), SN3 strain, trypom. forms [9, 15]: 53 | IC50 ([9]; Trypanosoma cruzi, bloodstream trypomastigotes, 24 h + 4 h resazurin, read-out: activity IC50, SN3 strain, trypom. forms): 1700 ± 200 nM | anti-T. cruzi IgG levels (ELISA), acute phase treatment (T. cruzi Arequipa strain; [21]): lower IgG values than the treated with BZN at the beginning of the treatment | splenomegaly reduction in comparison with untreated mice, acute phase treatment (T. cruzi Arequipa strain; [21]): 37% | parasitaemia reactivation after immunosuppression, acute phase treatment (T. cruzi Arequipa strain; 20 mg·kg–1 per day i.p. 5 days from 9 dpi, compared to untreated group): approximately 95% | anti-T. cruzi IgG levels (ELISA), chronic phase treatment (T. cruzi Arequipa strain; [22]): similar | splenomegaly reduction in comparison with untreated mice, chronic phase treatment (T. cruzi Arequipa strain; [22]): 48% | parasitaemia reactivation after immunosuppression, chronic phase treatment (T. cruzi Arequipa strain; 20 mg·kg–1 per day i.p. 5 days from 100 dpi, compared to untreated group): ~85% | parasite levels in target organs/tissues by PCR (in words) (T. cruzi Arequipa strain; 20 mg·kg–1 per day i.p. 5 days, necropsy 145 dpi): did not decrease enough parasite levels in the analyzed tissues | parasitaemia profile during the acute phase (T. cruzi Arequipa strain; 20 mg·kg–1 per day i.p. for 5 days from 9 dpi): slight antiparasitic activity over the first month | selectivity index (SI), Tulahuen strain, am. forms [10, 16]: 33 | IC50 ([10]; Trypanosoma cruzi, TULAHUEN, amastigotes in Vero cells, 72 h, read-out: activity IC50, Tulahuen strain, am. forms): 2700 ± 300 nM | IC50 [11]: > 100 µM | selectivity index (SI), Arequipa strain, trypom. forms [12, 15]: 50 | IC50 ([12]; Trypanosoma cruzi, bloodstream trypomastigotes, 24 h + 4 h resazurin, read-out: activity IC50, Arequipa strain, trypom. forms): 1800 ± 100 nM | IC50 [13]: 19.7 µM | CC50 (Vero cells): 89.3 ± 7.5 µM
